Experimental data as given in patent US11352350B2, “IRAK degraders and uses thereof” (Kymera Therapeutics, Inc., priority 2018, dated 2022).
Where two headings read alike, the source gives them in different places.

Legend:
OCI-LY10 tumor xenograft = experiment: OCI-LY10 tumor xenograft, tumor volume; assay type: in vivo; conditions: PO
IRAK4 [1] = molecular target: T1, IRAK4 (Homo sapiens (Human), UniProt Q9NWZ3); experiment: hPBMC IRAK4 degradation flow assay; assay type: cell-based; conditions: hPBMC monocyte, 20 hr, flow assay; read-out: IRAK4 degradation in hPBMC monocyte at 20 hr: Average external Abs DC50
Summary of the method: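 Thawed human PBMCs treated with 10-point, 5-fold compound dilutions (0.1% DMSO) at 37° C. for 20 hours or 4 hours. IRAK4 measured by flow MFI in CD14+ monocytes and CD14− lymphocytes, normalized to DMSO and 10 μM 20-hour control; DC50 and max degradation from 4-parameter logistic fit.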

IRAK4 [2] = molecular target: T1, IRAK4; experiment: IRAK4 MSD degradation in OCI-LY10; assay type: cell-based; conditions: MSD
Summary of the method: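 OCI-LY10 cells treated with 8-point 1:3 dilutions (top 1 to 10 μM final) for 4 to 24 h at 37° C. Lysate IRAK4 measured by MSD sandwich immunoassay (2H9 capture, Y279 detection, SULFO-TAG anti-rabbit). DC50 from three-parameter logistic fit.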

SU-DHL6 = SU-DHL6 viability, CTG; assay type: cell-based
IRAK4 [3] = molecular target: T1, IRAK4; experiment: IRAK4 degradation in OCI-LY10 tumor xenograft; assay type: in vivo; conditions: for IRAK4 ↓ (% Control): OCI-LY10 tumor xenograft, sample time 24 h
OCI-LY19 = OCI-LY19 viability, CTG; assay type: cell-based
IRAK4 [4] = molecular target: T1, IRAK4; experiment: IRAK4 degradation in OCI-LY10 (DC50); assay type: cell-based
IRAK4 [5] = molecular target: T1, IRAK4; experiment: IRAK4 WB degradation (DC50); assay type: cell-based
SU-DHL2 = SU-DHL2 viability, CTG; assay type: cell-based
OCI-LY10 [6] = experiment: OCI-LY10 viability, CTG; assay type: cell-based
IL-6 = IL-6 secretion in hPBMC using R848 stimulation; assay type: cell-based, human
U2932 = U2932 viability, CTG; assay type: cell-based
OCI-LY10 [7] = experiment: CTG Cell Viability Assay - OCI-LY10; assay type: cell-based, human; conditions: OCI-LY10, 4 days, read-out: CTG Cell Viability Assay - OCI-LY10: Average external-IC50
Summary of the method: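 OCI-LY10 cells exposed to 9-dose, 1:3 dilutions from 10 μM top (0.2% DMSO) for 4 days at 37° C, 5% CO2. Viability by CellTiter-Glo luminescence; IC50 from three-parameter logistic fit.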

IKAROS [8] = molecular target: T2, IKAROS (Homo sapiens (Human), UniProt Q13422+Q96SW2); experiment: IKAROS degradation in OCI-LY10 (DC50); assay type: cell-based
OCI-LY3 = OCI-LY3 viability, CTG; assay type: cell-based; conditions: Homo sapiens, MYD88 MUT
AIOLOS [9] = molecular target: T3, AIOLOS (Homo sapiens (Human), UniProt Q96SW2+Q9UKT9); experiment: AIOLOS degradation in OCI-LY10 (DC50); assay type: cell-based
C57BL/6 mice = experiment: IMQ (imiquimod) induced psoriasis; assay type: in vivo, mouse; conditions: oral dosing; FIG. 36
Method: A model of psoriasis includes the effects of degrader on epidermal hyperplasia development induced by daily topical application of 5% imiquimod in C57BL/6 mice. On each of Days 0 to 6, mice had 5% imiquimod cream administered topically on left ear and shaved back skin. Control mice (no imiquimod group) received control cream without imiquimod. […] The last dosing was on Day 6 for all mice. All dosing was at the same time (+/−1 hour) each day. For the BID groups there was no less than 9 and no more than 15 hours between doses. Readouts were body weight, PASI score, and skin thickness. Body weight was measured 3 times/week, starting on Day −3. Once on each of Days 0, 3, 5, 6, and 7, back and ear thickness was measured with calipers. Each measurement was performed blind, by a person unaware of the group or previous measurement. On Day 7, approximately 24 hours after the last imiquimod application, all mice were euthanized and blood collected via cardiac bleed into EDTA tubes. Plasma was isolated, and frozen. Tissues of interest were removed, weighed, recorded and frozen.

IFIT1 = experiment: Interferon response IFIT1 in OCI-LY10 tumor xenograft; assay type: in vivo; conditions: sample time 24 h
IFIT3 = experiment: Interferon response IFIT3 in OCI-LY10 tumor xenograft; assay type: in vivo; conditions: sample time 24 h
IKAROS [10] = molecular target: T2, IKAROS; experiment: Ikaros degradation in OCI-LY10 tumor xenograft; assay type: in vivo; conditions: sample time 24 h
AIOLOS [11] = molecular target: T3, AIOLOS; experiment: Aiolos degradation in OCI-LY10 tumor xenograft; assay type: in vivo; conditions: sample time 24 h
[12] = OCI-LY10, 4 hrs, read-out: IRAK4 MSD degradation in OCI-LY10 at 4 hrs: Average external-Abs DC50
[13] = OCI-LY10, 24 hrs, read-out: IRAK4 MSD degradation in OCI-LY10 at 24 hrs: Average external-Abs DC50
[14] = read-out: IRAK4 Degradation in OCI-LY10, DC50
[15] = Homo sapiens, SU-DHL-6, MYD88 WT Lines, read-out: SU-DHL6 Viability, CTG IC50
[16] = Homo sapiens, OCI-LY19, MYD88 WT Lines, read-out: OCI-LY19 Viability, CTG IC50
[17] = Homo sapiens, SU-DHL-2, MYD88 Mutant Lines, read-out: SU-DHL2 Viability, CTG IC50
[18] = Homo sapiens, OCI-Ly10, MYD88 Mutant Lines, read-out: OCI-LY10 Viability, CTG IC50
[19] = Homo sapiens, U2932, MYD88 WT Lines, read-out: U2932 Viability, CTG IC50
[20] = Homo sapiens, SU-DHL-6, MYD88 WT, read-out: SU-DHL6 CTG IC50
[21] = Homo sapiens, OCI-LY19, MYD88 WT, read-out: OCI-LY19 CTG IC50
[22] = Homo sapiens, SU-DHL-2, MYD88 MUT, read-out: SU-DHL2 CTG IC50
[23] = Homo sapiens, OCI-Ly10, MYD88 MUT, read-out: OCI-LY10 CTG IC50
[24] = Homo sapiens, U2932, MYD88 WT, read-out: U2932 CTG IC50

T1 sequence (Q9NWZ3 whole entry): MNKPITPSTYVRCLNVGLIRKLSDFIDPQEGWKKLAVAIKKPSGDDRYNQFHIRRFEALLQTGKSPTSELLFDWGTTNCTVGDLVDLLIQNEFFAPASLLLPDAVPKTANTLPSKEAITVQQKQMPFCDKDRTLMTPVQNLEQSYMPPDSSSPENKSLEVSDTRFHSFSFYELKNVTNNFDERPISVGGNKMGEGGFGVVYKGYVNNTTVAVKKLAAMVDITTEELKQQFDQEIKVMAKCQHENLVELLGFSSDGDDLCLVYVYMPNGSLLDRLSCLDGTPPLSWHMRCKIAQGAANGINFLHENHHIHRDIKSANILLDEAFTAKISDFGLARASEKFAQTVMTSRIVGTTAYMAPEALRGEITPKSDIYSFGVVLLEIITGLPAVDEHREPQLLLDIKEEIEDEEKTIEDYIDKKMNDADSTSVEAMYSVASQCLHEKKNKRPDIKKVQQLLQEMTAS
T3 sequence (Q9UKT9 whole entry): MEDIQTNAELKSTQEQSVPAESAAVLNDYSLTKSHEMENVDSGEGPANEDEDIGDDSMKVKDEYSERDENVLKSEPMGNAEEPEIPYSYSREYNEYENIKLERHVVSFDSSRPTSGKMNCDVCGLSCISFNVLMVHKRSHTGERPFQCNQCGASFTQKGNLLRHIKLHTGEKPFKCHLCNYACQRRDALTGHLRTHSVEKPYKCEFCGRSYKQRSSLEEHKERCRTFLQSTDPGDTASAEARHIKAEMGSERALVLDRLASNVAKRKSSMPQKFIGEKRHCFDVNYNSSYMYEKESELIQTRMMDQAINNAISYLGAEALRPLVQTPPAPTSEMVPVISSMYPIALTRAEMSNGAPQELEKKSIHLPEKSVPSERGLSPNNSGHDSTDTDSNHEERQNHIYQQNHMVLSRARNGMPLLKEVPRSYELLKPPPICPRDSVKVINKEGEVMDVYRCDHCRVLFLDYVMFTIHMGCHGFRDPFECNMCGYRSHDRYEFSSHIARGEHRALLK
T3 sequence (Q96SW2 whole entry): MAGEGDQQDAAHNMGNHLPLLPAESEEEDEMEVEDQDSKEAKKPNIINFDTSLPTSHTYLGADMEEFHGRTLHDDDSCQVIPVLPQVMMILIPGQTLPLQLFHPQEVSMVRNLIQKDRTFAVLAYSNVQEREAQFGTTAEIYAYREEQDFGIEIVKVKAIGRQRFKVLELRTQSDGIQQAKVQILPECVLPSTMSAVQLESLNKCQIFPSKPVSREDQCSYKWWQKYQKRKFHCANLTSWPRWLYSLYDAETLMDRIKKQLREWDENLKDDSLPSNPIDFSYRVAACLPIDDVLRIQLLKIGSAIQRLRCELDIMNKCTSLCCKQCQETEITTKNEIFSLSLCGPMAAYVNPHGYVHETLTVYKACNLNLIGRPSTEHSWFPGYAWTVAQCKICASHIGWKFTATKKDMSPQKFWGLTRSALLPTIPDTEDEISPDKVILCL
T3 sequence (Q16531 whole entry partner): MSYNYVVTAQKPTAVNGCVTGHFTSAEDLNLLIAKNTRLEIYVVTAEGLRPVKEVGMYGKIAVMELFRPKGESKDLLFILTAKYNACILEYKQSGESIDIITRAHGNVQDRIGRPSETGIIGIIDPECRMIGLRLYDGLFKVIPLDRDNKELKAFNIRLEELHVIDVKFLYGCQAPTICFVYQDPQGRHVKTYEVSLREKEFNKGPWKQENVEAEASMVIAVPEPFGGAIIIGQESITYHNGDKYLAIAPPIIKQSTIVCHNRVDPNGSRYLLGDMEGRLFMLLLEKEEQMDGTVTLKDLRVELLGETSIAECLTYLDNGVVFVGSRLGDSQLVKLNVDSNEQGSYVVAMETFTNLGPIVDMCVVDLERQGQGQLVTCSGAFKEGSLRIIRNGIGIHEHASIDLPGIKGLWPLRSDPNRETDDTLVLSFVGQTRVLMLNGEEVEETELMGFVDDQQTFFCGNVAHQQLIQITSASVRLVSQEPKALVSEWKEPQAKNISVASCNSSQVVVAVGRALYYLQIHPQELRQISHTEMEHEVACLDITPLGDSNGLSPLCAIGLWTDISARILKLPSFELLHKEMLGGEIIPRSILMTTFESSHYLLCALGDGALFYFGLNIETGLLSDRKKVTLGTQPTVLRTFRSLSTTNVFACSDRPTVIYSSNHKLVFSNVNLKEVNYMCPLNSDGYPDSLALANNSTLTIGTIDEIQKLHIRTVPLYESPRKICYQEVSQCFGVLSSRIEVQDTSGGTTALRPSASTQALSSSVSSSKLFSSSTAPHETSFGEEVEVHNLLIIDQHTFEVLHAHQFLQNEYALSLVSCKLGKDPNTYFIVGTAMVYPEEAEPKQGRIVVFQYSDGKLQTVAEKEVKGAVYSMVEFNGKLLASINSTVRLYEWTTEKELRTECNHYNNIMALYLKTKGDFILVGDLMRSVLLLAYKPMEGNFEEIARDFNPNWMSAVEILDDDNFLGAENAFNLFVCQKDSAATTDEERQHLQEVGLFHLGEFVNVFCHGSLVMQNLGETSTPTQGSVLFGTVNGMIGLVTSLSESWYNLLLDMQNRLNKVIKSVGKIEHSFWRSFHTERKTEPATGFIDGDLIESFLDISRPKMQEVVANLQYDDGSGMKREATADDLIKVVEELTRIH
T2 sequence (Q13422 whole entry): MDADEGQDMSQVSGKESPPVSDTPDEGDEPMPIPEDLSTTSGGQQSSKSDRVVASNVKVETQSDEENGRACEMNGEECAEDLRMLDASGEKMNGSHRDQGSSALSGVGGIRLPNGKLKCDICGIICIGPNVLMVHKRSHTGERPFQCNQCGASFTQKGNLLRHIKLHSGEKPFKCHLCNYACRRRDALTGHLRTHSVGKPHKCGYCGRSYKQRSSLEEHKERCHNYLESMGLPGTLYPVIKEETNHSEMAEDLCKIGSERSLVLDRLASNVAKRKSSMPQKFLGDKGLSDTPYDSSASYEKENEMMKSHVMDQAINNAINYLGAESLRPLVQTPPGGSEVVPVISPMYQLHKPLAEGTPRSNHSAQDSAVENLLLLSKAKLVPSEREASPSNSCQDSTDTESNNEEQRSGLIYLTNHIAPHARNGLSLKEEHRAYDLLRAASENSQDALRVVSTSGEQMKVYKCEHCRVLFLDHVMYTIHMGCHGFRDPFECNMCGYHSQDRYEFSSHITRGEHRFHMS
T2 sequence (Q96SW2 whole entry): as the sequence (Q96SW2 whole entry) above
T2 sequence (Q16531 whole entry partner): as the sequence (Q16531 whole entry partner) above

Compound	DC50 (IRAK4 [1]) [nM]	DC50 (IRAK4 [2]; [12]) [nM]	DC50 (IRAK4 [2]; [13]) [nM]	DC50 (IRAK4 [4]; [14]) [nM]	DC50 (IRAK4 [4]; read-out: IRAK4 OCI-LY10 DC50) [nM]	DC50 (IRAK4 [5]) [nM]	IC50 (SU-DHL6; [15]) [nM]	IC50 (OCI-LY19; [16]) [nM]	IC50 (SU-DHL2; [17]) [nM]	IC50 (OCI-LY10 [6]; [18]) [nM]	IC50 (U2932; [19]) [nM]	IC50 (OCI-LY10 [7]; Homo sapiens, OCI-Ly10, 96 h) [nM]	IC50 (SU-DHL6; [20]) [nM]	IC50 (OCI-LY19; [21]) [nM]	DC50 (IKAROS [8]) [nM]	IC50 (OCI-LY3) [nM]	IC50 (SU-DHL2; [22]) [nM]	IC50 (OCI-LY10 [6]; [23]) [nM]	DC50 (AIOLOS [9]) [nM]	IC50 (U2932; [24]) [nM]	further results
Cn1c(=O)n([C@H]2CCC(=O)NC2=O)c2cccc(CCCOC3CCN(CC4CCC(n5cc(NC(=O)c6cnn7ccc(N8CCOCC8)nc67)c(C(F)F)n5)CC4)CC3)c21 (stereo partly drawn) [I-257, N-[3-(difluoromethyl)-1-[4-[[4-[3-[1-[(3S)-2,6-dioxo-3-piperidyl]-3-methyl-2-oxo-benzimidazol-4-yl]propoxy]-1-piperidyl]methyl]cyclohexyl]pyrazol-4-yl]-5-morpholino-pyrazolo[1,5-a]pyrimidine-3-carboxamide]	< 10	< 10	< 10	5	5	3	–	–	–	–	–	–	–	–	–	–	–	–	–	–	Regression of OCI-LY10 tumor xenograft (OCI-LY10 tumor xenograft; BID, 150 mg/kg (FIG. 18)): without regression; Regression of OCI-LY10 tumor xenograft (OCI-LY10 tumor xenograft; BID, 150 mg/kg (FIG. 18), listed as 1-257): without causing regression; IC50 (SU-DHL6; MYD88 WT Lines, read-out: SU-DHL6 Viability, CTG IC50): 5600 nM; IC50 (SU-DHL6; MYD88 WT, read-out: SU-DHL6 CTG IC50): 5600 nM; IRAK4 degradation in OCI-LY10 tumor xenograft (IRAK4 [3]; PO, BID (FIG. 18)): 90%; IC50 (OCI-LY19; MYD88 WT Lines, read-out: OCI-LY19 Viability, CTG IC50): 4700 nM; IC50 (OCI-LY19; MYD88 WT, read-out: OCI-LY19 CTG IC50): 4700 nM; IC50 (SU-DHL2; MYD88 MUT, read-out: SU-DHL2 CTG IC50): 6900 nM; IC50 (SU-DHL2; MYD88 Mutant Lines, read-out: SU-DHL2 Viability, CTG IC50): 6900 nM; IC50 (OCI-LY10 [6]; MYD88 MUT, read-out: OCI-LY10 CTG IC50): 1200 nM; IC50 (OCI-LY10 [6]; MYD88 Mutant Lines, read-out: OCI-LY10 Viability, CTG IC50): 1200 nM; IC50 (IL-6; hPBMC, R848 as stim, t = 20 h): < 1 nM; IC50 (U2932; MYD88 WT Lines, read-out: U2932 Viability, CTG IC50): > 10000 nM; IC50 (U2932; MYD88 WT, read-out: U2932 CTG IC50): 10000 nM; IC50 (OCI-LY10 [7]): > 1000 nM
CN(C[C@H]1CC[C@H](n2cc3cc(NC(=O)c4cccc(C(F)(F)F)n4)c(C(C)(C)O)cc3n2)CC1)C1CCN(Cc2cccc3c2n(C)c(=O)n3C2CCC(=O)NC2=O)CC1 (stereo partly shown) [I-191]	< 10	< 10	–	4	–	–	5600	> 10000	> 10000	> 10000	> 10000	> 1000	–	–	–	–	–	–	–	–	IC50 (IL-6; Homo sapiens, 20 h, hPBMC, R848 as stim, t = 20 h): 1 to 10 nM
CN(CCCOCCNc1cccc2c1C(=O)N(C1CCC(=O)NC1=O)C2=O)C[C@H]1CC[C@H](n2cc(NC(=O)c3coc(-c4ccnc(NCC5CC5)c4)n3)c(C(F)F)n2)CC1 (stereo partly shown) [I-168]	–	10 to 100	< 10	–	20	78	–	–	–	–	–	< 50	1900	430	5	290	64	31	5	410	–
CC[C@@H]1CC(=O)N[C@@H]1COc1ncc(C#C[C@H]2CC[C@H](CN3CCC(OCCCc4cccc5c4n(C)c(=O)n5C4CCC(=O)NC4=O)CC3)CC2)c2cc(C(N)=O)c(OC)cc12 (stereo partly shown) [I-229]	–	10 to 100	10 to 100	26	–	–	4100	> 10000	> 10000	3500	> 10000	> 1000	–	–	–	–	–	–	–	–	–
Cn1c(=O)n(C2CCC(=O)NC2=O)c2cccc(C#CCOC3CCN(C[C@H]4CC[C@H](n5cc(NC(=O)c6cnn7ccc(N8C[C@H]9C[C@@H]8CO9)nc67)c(C(F)F)n5)CC4)CC3)c21 (stereo partly drawn) [I-417, N-[3-(difluoromethyl)-1-[4-[[4-[3-[1-(2,6-dioxo-3-piperidyl)-3-methyl-2-oxo-benzimidazol-4-yl]prop-2-ynoxy]-1-piperidyl]methyl]cyclohexyl]pyrazol-4-yl]-5-[(1R,4R)-2-oxa-5-azabicyclo[2.2.1]heptan-5-yl]pyrazolo[1,5-a]pyrimidine-3-carboxamide]	–	–	–	–	–	–	–	–	–	–	–	–	–	–	–	–	–	–	–	–	skin thickening in mice treated with topical imiquimod (C57BL/6 mice): significantly reduced skin thickening; IC50 (IL-6; Homo sapiens, 20 h, read-out: IL-6 Secretion in hPBMC, R848 as stim, t = 20 h: IC50): < 1 nM; IC50 (OCI-LY10 [7]; Homo sapiens, 96 h): > 1000 nM
O=C1CCC(N2C(=O)c3cccc(NCCCOC4CCN(C[C@H]5CC[C@H](n6cc(NC(=O)c7cnn8ccc(N9CCOCC9)nc78)c(C(F)F)n6)CC5)CC4)c3C2=O)C(=O)N1 (stereo partly shown) [I-208]	–	10 to 100	–	–	20	130	–	–	–	–	–	< 50	833	1700	3	3000	366	36	< 3	1800	Regression of OCI-LY10 tumor xenograft (OCI-LY10 tumor xenograft; single agent, QD, 24, 72, and 240 mg/kg (FIG. 21)): with regression; Regression of OCI-LY10 tumor xenograft (OCI-LY10 tumor xenograft; single agent, QD, 24, 72, and 240 mg/kg (FIG. 21), listed as 1-208): drives regression; Interferon Response IFIT1 Increase (Fold) (IFIT1; 24 mg/kg PO QD): >24.4 Fold; Interferon Response IFIT1 Increase (Fold) (IFIT1; 72 mg/kg PO QD): >41.5 Fold; Interferon Response IFIT1 Increase (Fold) (IFIT1; 240 mg/kg PO QD): >38.7 Fold; IRAK4 ↓ (% Control) (IRAK4 [3]; 24 mg/kg PO QD): 57.8 % Control; IRAK4 ↓ (% Control) (IRAK4 [3]; 72 mg/kg PO QD): 78.7 % Control; IRAK4 ↓ (% Control) (IRAK4 [3]; 240 mg/kg PO QD): 86.5 % Control; Interferon Response IFIT3 Increase (Fold) (IFIT3; 24 mg/kg PO QD): >43.1 Fold; Interferon Response IFIT3 Increase (Fold) (IFIT3; 72 mg/kg PO QD): >64.0 Fold; Interferon Response IFIT3 Increase (Fold) (IFIT3; 240 mg/kg PO QD): >59.7 Fold; Ikaros ↓ (% Control) (IKAROS [10]; 24 mg/kg PO QD): 46.3 % Control; Ikaros ↓ (% Control) (IKAROS [10]; 72 mg/kg PO QD): 71.0 % Control; Ikaros ↓ (% Control) (IKAROS [10]; 240 mg/kg PO QD): 81.2 % Control; Aiolos ↓ (% Control) (AIOLOS [11]; 24 mg/kg PO QD): 30.9 % Control; Aiolos ↓ (% Control) (AIOLOS [11]; 72 mg/kg PO QD): 62.4 % Control; Aiolos ↓ (% Control) (AIOLOS [11]; 240 mg/kg PO QD): 68.6 % Control
